Laboratory results as given in patent US6583139B1, “Compounds which inhibit leukocyte adhesion mediated by VLA-4” (priority 1997, dated 2003).
Where a SMILES comes first, the peptide text is derived from it. The star is where a group is joined. Tos = Cc1ccc(S(=O)(=O)*)cc1; tBu = CC(C)(C)*

How the values were obtained:
[1] = system: Experimental Autoimmune (or Allergic) Encephalomyelitis; test: Experimental Autoimmune Encephalomyelitis (EAE) model, motor impairment; format: in vivo; conditions: rats or guinea pigs; treatment from Day 8, bid for five days, SC, PO or IP

Molecule	melting point [°C]	active in EAE in vivo assay (delayed the onset of symptoms, e.g. clinical scores no greater than 2 or slowed body weight loss as compared to the control) [1]
Cc1ccc(S(=O)(=O)N2CCC[C@H]2C(=O)N[C@@H](Cc2ccc(OC(C)(C)C)cc2)C(=O)O)cc1 [Example 10, N-(Toluene-4-sulfonyl)-L-prolyl-4-(O-tert-butyl)-L-tyrosine] (Tos-Pro-Tyr(tBu)-OH)	–	active
Cc1ccc(S(=O)(=O)N2CCC[C@H]2C(=O)N[C@@H](C)C(=O)O)cc1 [Example 16, N-(Toluene-4-sulfonyl)-L-prolyl-L-alanine] (Tos-Pro-Ala-OH)	160.5 to 162.5	–
Cc1ccc(S(=O)(=O)N2CCC[C@H]2C(=O)N[C@@H](CC(=O)O)C(=O)O)cc1 [Example 19, N-(Toluene-4-sulfonyl)-L-prolyl-L-aspartic acid] (Tos-Pro-Asp-OH)	174 to 176	–
Cc1ccc(S(=O)(=O)N2CCC[C@H]2C(=O)N[C@@H](Cc2ccc(OCCN(Cc3ccccc3)Cc3ccccc3)cc2)C(=O)O)cc1 [Example 45, N-(Toluene-4-sulfonyl)-L-prolyl-L-O-[2-(dibenzylamino)ethyl]-tyrosine]	106 to 110	–
CC(C)OC(=O)[C@H](Cc1ccc(O)cc1)NC(=O)[C@@H]1CCCN1S(=O)(=O)c1cn(C)cn1 [Example 226, N-(1-Methylimidazol-4-sulfonyl)-L-prolyl-(4-hydroxyl)-L-phenylalanine isopropyl ester]	159 to 162	–
N-(Toluene-4-sulfonyl)-L-(5,5-dimethyl) thiaprolyl-L-(N-benzyl)-histidine [Example 27]	–	active

Continued, in another order:

melting point [°C]	Molecule	active in EAE in vivo assay (delayed the onset of symptoms, e.g. clinical scores no greater than 2 or slowed body weight loss as compared to the control) [1]
173 to 175	Cc1ccc(S(=O)(=O)N[C@@H](CCC(=O)O)C(=O)N[C@@H](Cc2ccc(O)cc2)C(=O)O)cc1 [Example 30, N-(Toluene-4-sulfonyl)-L-glutamyl-L-tyrosine] (Tos-Glu-Tyr-OH)	–
163 to 165	Cc1ccc(S(=O)(=O)N2CCC[C@H]2C(=O)N[C@@H](Cc2ccc(NC(=O)Nc3ccc(C#N)cc3)cc2)C(=O)O)cc1 [Example 49, N-(Toluene-4-sulfonyl)-L-prolyl-L-4-[3-(4-cyanophenyl)-ureido]-phenylalanine]	–
145 to 150	Cc1ccc(S(=O)(=O)N2CCC[C@H]2C(=O)N[C@@H](Cc2ccc(C(=O)N[C@@H]3Cc4ccccc4C=N3)cc2)C(=O)O)cc1 [Example 52, N-(Toluene-4-sulfonyl)-L-prolyl-L-4[(3S)-3,4-dihydro-isoquinolin-3-yl-aminocarbonyl]-phenylalanine]	–
